Biological target: T1, human Cav1.2/β2/α2δ1 L-type calcium channel (Homo sapiens, UniProt Q13936)
T1 construct: host or cells: CHO cells (purchased recombinant cell line)
Experiment: L-type Ca2+ current in human Cav1.2/β2/α2δ1 expressing CHO cells (patch clamp)
Format: cell-based
Conditions: CHO cells expressing human Cav1.2/β2/α2δ1 calcium channel, pH 7.4, 15 μM lumin, n = 3, read-out: L-type current, % of control
Method: Figure 8 Effect of lumin on the Ca^2+ response and channel activity in HEK293 cells expressing mTRPV2 (A) Inhibition of the 2-APB-induced increase in [Ca^2+]i in HEK293 cells expressing mTRPV2 by lumin. Cells were loaded with fura-2-AM and stimulated with 2-APB (0.3 mM) in the absence or presence of the indicated concentrations of lumin. The fluorescence ratio was measured by a microplate reader and normalized by the maximal value. Data are shown as mean ± SD (n = 5). (B) Lumin blocked the mTRPV2 channel. The current values at −100 mV measured by an every-2-second ramp protocol were plotted. After the current activated by 200 μM 2-APB at pH 6.5 became stable, a mixture of 15 μM lumin and 2-APB was applied to the cells. (C) Effect of lumin on the current-voltage relationship of 2-APB-evoked current. (D) Concentration-dependence of lumin for the inhibition of mTRPV2 current. Data are shown as mean ± SD (n = 3–5) (E) Effect of lumin (15 μM) on L-type Ca^2+ channel activity. The current waveforms of the control cells and the cells 11 minutes after application of 15 μM lumin were superimposed. […]
For the measurement of L-type Ca^2+ currents, human Cav1.2/β2/α2δ1 calcium channel expressing CHO cells were purchased from ChanTest (Cleveland, OH, USA). […] The data were analysed and plotted with Clampfit 9 (Molecular Devices, LLC, Sunnyvale, CA, USA). […]

T1 sequence (Q13936 whole entry): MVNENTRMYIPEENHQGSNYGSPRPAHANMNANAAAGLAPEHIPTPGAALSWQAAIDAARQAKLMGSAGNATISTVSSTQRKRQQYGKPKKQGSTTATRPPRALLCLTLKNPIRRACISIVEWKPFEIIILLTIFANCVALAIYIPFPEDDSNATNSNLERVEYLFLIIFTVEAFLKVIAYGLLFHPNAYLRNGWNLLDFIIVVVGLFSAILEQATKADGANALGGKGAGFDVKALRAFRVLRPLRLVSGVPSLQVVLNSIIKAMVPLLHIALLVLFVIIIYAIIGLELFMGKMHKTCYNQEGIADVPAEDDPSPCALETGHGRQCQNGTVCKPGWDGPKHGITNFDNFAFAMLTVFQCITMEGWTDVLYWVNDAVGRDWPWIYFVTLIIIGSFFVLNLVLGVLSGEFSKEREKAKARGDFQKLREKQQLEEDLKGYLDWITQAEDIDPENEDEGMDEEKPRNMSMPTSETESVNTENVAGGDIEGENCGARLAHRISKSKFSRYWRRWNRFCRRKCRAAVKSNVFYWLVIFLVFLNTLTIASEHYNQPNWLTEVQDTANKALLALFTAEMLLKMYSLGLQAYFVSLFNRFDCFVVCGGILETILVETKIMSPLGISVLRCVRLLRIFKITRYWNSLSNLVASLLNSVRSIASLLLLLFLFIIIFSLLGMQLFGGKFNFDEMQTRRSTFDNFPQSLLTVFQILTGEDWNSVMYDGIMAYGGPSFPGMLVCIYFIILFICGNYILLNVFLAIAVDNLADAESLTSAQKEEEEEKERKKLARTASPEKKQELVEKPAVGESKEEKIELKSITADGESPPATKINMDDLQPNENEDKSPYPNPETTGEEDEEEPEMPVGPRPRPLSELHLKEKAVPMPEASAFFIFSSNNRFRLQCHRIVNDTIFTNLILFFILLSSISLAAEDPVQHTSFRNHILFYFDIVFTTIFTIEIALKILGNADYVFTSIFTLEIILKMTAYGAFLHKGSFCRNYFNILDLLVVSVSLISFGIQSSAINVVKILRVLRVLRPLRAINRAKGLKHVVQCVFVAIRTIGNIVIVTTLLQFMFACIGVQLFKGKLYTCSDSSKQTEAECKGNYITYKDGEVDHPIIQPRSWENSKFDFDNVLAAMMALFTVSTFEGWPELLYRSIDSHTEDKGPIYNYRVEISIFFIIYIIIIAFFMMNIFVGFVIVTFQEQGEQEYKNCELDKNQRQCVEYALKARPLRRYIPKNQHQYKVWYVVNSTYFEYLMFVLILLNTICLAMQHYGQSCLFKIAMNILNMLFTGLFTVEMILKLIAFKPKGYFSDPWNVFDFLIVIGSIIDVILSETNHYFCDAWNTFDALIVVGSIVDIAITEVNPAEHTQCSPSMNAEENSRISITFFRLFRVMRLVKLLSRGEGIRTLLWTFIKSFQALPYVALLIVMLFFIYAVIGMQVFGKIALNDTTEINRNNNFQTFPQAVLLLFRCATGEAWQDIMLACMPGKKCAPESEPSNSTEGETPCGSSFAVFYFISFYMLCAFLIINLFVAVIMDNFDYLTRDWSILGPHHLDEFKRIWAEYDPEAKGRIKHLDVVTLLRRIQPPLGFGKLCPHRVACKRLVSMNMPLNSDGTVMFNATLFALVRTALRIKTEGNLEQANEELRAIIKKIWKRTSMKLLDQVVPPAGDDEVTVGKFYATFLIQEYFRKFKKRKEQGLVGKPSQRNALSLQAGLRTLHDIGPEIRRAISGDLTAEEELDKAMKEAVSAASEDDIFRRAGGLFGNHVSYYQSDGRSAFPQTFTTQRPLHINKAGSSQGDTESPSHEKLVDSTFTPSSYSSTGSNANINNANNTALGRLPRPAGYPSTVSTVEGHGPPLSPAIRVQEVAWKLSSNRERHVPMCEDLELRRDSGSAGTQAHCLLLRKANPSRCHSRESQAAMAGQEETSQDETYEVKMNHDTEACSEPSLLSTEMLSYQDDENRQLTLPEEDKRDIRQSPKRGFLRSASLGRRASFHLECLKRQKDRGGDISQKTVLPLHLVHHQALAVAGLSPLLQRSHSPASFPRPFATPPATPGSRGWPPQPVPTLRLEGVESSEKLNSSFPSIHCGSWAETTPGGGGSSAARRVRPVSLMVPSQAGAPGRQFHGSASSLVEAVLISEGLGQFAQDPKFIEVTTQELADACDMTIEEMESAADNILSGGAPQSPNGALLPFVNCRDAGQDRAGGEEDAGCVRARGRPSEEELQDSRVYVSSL
T1 sequence (Q08289 whole entry partner): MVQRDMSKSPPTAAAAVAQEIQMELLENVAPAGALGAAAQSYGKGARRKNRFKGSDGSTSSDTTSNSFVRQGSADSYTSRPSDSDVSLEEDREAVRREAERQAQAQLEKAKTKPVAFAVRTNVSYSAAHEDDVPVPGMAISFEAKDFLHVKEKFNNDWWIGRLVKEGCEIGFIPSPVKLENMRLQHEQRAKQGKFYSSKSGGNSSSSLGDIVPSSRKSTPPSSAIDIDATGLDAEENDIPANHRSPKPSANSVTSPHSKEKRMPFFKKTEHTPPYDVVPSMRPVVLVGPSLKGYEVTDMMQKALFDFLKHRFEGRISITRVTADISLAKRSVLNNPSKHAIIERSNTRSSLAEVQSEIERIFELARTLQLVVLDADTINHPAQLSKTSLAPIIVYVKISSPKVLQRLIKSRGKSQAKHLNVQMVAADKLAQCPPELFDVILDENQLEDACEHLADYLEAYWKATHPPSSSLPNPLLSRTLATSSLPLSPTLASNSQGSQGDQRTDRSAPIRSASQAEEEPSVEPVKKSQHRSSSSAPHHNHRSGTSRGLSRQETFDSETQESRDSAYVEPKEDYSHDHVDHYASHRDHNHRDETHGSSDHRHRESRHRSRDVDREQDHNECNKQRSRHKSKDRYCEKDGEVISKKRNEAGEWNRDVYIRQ
T1 sequence (P54289 25-956 partner limits assumed): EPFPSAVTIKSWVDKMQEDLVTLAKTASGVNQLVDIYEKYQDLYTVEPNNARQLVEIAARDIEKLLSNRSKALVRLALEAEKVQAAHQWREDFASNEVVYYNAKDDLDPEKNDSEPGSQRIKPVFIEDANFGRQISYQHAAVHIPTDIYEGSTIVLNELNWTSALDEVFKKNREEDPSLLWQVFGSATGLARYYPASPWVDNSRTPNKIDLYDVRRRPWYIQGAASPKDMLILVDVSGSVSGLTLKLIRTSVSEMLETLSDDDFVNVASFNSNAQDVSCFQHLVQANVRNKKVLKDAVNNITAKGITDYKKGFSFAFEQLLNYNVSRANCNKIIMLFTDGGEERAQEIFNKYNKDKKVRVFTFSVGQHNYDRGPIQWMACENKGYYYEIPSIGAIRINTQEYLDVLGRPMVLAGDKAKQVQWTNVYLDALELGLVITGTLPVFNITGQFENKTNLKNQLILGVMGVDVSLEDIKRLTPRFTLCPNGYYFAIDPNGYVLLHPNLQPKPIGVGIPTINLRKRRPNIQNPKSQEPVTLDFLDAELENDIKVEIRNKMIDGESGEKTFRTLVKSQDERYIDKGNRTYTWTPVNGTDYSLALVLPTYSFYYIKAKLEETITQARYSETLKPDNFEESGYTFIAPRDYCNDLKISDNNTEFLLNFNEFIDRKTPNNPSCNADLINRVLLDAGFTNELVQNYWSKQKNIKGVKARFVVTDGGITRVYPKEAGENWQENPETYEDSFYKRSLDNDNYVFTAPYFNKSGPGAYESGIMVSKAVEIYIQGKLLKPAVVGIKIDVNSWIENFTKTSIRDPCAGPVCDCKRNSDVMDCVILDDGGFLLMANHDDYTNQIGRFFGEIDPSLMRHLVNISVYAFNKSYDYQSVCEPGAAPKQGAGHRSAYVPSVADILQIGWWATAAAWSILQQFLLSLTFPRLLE
T1 sequence (P54289 957-1103 partner limits assumed): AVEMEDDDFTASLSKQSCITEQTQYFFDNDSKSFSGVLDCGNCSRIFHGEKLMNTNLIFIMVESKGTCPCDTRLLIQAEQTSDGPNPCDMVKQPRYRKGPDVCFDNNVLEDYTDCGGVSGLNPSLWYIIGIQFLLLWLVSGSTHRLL

## CCN1C=CC(=CC=C(C=Cc2cc[n+](CC)c3ccccc23)c2cc[n+](CC)c3ccccc23)c2ccccc21.[I-].[I-] [lumin, 4,4′-[3-[2-[1-ethyl-4(1H)-quinolinylidene]ethylidene]-1-propene-1,3-diyl]bis(1-ethylquinolinium) diiodide]
  activity at 11 min, 15 μM: 96.6 ± 8.7%

Reference: article PMC5865651, “Novel inhibitor candidates of TRPV2 prevent damage of dystrophic myocytes and ameliorate against dilated cardiomyopathy in a hamster model” (Oncotarget, 2018)
